Data: patent publication US20230027295A1, “FXIA INHIBITORS AND PREPARATION METHOD THEREFOR AND PHARMACEUTICAL USE THEREOF” (Shenzhen Salubris Pharmaceuticals Co., Ltd., priority 2019, published 2023)

Legend:
CYP2B6 = biological target: T1, CYP2B6 (Homo sapiens, UniProt P20813); test: CYP enzyme inhibition in liver microsomes: CYP2B6; type: in vitro ADME; details: 0.2 mg/mL liver microsomes
T1 construct: Liver microsomes (150-donor, Corning, Cat. 452117; Lot; 38292), NADPH; tissue Corning 452117; host or cells: liver microsomes, 150-donor pool
T1 sequence (P20813 1-491): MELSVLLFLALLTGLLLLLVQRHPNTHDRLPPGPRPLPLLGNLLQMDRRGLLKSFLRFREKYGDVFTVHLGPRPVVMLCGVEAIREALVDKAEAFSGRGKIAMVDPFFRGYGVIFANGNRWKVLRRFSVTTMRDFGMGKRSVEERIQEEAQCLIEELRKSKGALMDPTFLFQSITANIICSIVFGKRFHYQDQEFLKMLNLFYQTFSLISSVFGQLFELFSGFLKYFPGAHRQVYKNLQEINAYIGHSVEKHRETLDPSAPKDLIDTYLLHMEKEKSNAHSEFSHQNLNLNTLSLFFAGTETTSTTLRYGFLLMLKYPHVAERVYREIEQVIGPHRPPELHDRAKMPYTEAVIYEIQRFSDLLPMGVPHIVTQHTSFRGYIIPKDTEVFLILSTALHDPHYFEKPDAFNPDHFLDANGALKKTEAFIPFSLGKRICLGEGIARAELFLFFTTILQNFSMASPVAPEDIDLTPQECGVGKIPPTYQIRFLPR
Method: (§1) Example 55: Investigation of CYP Enzyme Inhibition by the Compounds of the Present Invention Liver microsomes (150-donor, Corning, Cat. 452117; Lot. 38292), NADPH. A 0.2 mg/mL microsome system was prepared, each test substance and substrate were added, and the final concentration of the test substance was 50 μM. After pre-incubating for 8 min, 10 mM NADPH was added to start the reaction, and the final concentration of NADPH was 1 mM. After a period of incubation, an internal standard such as methanol was added to stop the reaction. The amount of substrate metabolites generated in each reaction well was detected. Data processing: Taking the metabolite generation in the blank well as 100%, the reduction of metabolite generation in each well of the test substance was calculated, and the inhibition rate was calculated.

CYP3A4 = biological target: T2, CYP3A4 (Homo sapiens, UniProt P08684); test: CYP enzyme inhibition in liver microsomes: CYP3A4; type: in vitro ADME; details: 0.2 mg/mL liver microsomes
T2 construct: Liver microsomes (150-donor, Corning, Cat. 452117; Lot; 38292), NADPH; tissue Corning 452117; host or cells: liver microsomes, 150-donor pool
Method: Example 55: Investigation of CYP Enzyme Inhibition by the Compounds of the Present Invention Liver microsomes (150-donor, Corning, Cat. 452117; Lot. 38292), NADPH. […] After pre-incubating for 8 min, 10 mM NADPH was added to start the reaction, and the final concentration of NADPH was 1 mM. After a period of incubation, an internal standard such as methanol was added to stop the reaction. The amount of substrate metabolites generated in each reaction well was detected. […]

hFIIa = biological target: T3, hFIIa (Homo sapiens, UniProt P00734); test: Selectivity to coagulation factors: hFIIa (substrate S-2238); type: biochemical
T3 construct: purchased HT5146L
Method: (§2) Example 52: Investigation of the Selectivity of the Compounds of the Present Invention to Coagulation Factors
(§3) Enzyme: hFXa: Human Factor Xa: 71nkat. hFIIa: HT5146L. hFVIIa: Human Factor VIIa: hFVIIa 4591L. kallikrein: LOT180223.
(§4) 10 mM test compound dissolved in 100% DMSO was diluted with 100% DMSO to 1000, 200, 40, 8, 1.6 μM. 98 μL of enzyme solution was added to each well of a 96-well plate, while 98 μL of buffer was added to the blank wells. 2 μL of compounds of different concentrations were added, while the blank and control wells were added with DMSO instead. They were mixed with a shaker, and incubated at 37° C. for 20 min.
(§5) The concentrations of hFXa and S-2222™ were FXa (1:28) and 800 μmol/L, respectively. The concentrations of hFIIa and S-2238™ were hFIIa (0.06 U/ml) and 500 μmol/L, respectively. The concentrations of hFVIIa and S-2288™ were hFVIIa (80 nM) and 1600 μmol/L, respectively. The concentrations of kallikrein and substrate were kallikrein (20 nM) and 1600 μmol/L, respectively.
(§6) Finally, 100 μL substrate was added to each well, and its absorbance was measured at 405 nm.

hKallikrein = biological target: T4, hKallikrein (Homo sapiens, UniProt P03952); test: Selectivity to coagulation factors: kallikrein; type: biochemical
T4 construct: purchased LOT180223
Method: as §2, §3
kallikrein buffer: 50 mM Tris, 50 mM Mimidazole and 150 mM NaCl (pH 8.2).
as §4, §5, §6

CYP2C8 = biological target: T5, CYP2C8 (Homo sapiens, UniProt P10632); test: CYP enzyme inhibition in liver microsomes: CYP2C8; type: in vitro ADME; details: 0.2 mg/mL liver microsomes
T5 construct: Liver microsomes (150-donor, Corning, Cat. 452117; Lot; 38292), NADPH; tissue Corning 452117; host or cells: liver microsomes, 150-donor pool
T5 sequence (P10632 1-490): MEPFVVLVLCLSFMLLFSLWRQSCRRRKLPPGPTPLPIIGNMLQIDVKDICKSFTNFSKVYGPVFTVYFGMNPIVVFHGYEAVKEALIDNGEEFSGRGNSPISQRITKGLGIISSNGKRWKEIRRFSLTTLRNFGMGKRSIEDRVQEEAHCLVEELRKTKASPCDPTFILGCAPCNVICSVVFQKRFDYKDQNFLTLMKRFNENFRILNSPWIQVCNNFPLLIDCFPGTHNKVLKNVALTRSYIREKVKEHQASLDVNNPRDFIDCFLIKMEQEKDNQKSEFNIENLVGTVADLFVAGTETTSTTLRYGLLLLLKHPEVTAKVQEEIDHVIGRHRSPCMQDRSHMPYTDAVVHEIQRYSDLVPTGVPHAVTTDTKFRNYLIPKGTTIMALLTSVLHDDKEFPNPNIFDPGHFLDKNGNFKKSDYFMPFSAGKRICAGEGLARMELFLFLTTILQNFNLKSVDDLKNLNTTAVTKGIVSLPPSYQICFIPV
Method: as §1

T2 sequence (P08684 whole entry): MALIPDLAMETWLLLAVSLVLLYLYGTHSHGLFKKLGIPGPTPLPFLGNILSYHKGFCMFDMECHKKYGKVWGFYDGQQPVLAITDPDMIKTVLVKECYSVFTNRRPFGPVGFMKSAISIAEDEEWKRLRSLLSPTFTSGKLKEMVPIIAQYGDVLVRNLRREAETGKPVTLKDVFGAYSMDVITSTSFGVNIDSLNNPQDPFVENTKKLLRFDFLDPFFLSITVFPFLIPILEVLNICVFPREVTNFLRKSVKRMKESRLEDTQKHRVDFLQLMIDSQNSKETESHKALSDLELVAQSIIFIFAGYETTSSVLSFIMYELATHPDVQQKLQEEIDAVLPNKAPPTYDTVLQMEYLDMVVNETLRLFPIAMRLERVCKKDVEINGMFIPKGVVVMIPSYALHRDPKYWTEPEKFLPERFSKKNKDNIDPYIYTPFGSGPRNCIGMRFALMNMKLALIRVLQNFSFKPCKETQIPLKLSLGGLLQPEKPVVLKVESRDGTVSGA
T4 sequence (P03952 391-638 limits assumed): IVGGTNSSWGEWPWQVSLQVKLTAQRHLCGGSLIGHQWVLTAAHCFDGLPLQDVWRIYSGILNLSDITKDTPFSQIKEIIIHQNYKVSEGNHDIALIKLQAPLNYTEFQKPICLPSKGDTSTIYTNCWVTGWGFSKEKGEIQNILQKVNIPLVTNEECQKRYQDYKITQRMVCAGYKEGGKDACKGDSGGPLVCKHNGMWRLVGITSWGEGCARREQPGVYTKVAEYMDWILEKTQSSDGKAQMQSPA
T4 sequence (P03952 20-390 partner limits assumed): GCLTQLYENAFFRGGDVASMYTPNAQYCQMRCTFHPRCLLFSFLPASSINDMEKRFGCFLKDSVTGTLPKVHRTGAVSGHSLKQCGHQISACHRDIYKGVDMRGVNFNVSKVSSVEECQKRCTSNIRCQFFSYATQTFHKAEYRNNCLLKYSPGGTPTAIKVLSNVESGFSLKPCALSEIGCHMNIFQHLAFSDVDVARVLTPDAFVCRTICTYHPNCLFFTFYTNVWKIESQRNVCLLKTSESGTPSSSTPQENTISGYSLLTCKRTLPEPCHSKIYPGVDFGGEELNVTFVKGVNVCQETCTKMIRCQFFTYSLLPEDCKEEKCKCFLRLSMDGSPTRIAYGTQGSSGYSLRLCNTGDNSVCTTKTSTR

| IC50 (CYP2B6) | IC50 (CYP3A4) | IC50 (hFIIa) | IC50 (hKallikrein) | IC50 (CYP2C8) | SMILES |
| --- | --- | --- | --- | --- | --- |
| > 50 µM | > 50 µM | > 100 µM | 0.103 ± 0.0149 µM | ~30 µM | CCC(=O)c1ccc(Cl)cc1-c1cc(=O)n([C@@H](Cc2ccccc2)C(=O)Nc2ccc(C(=O)O)cc2)nc1OC [Example 32] |
| > 50 µM | > 50 µM | > 100 µM | 0.524 ± 0.0602 µM | ~50 µM | COc1nn([C@@H](Cc2ccccc2)C(=O)Nc2ccc(C(=O)O)cc2)c(=O)cc1-c1cc(Cl)ccc1C(C)=O [Example 19, (S)-4-(2-(4-(2-acetyl-5-chlorophenyl)-3-methoxy-6-oxopyridazin-1(6H)-yl)-3-phenylpropanamido)benzoic acid] |
